Laboratory results reported in patent publication US5100905A, “Method for inhibiting growth of bacteria, fungi or algae by treatment with biocide composition” (Rohm and Haas Company, priority 1991, dated 1992).

Test system: mixture of 12 microorganisms
Experiment: Calculation of synergism of 573 and 651 combinations (Kull et al. method)
Assay type: cell-based
Conditions: for SI (synergy index, Qa'/QA + Qb'/.75 QB): <1 synergism, 1 additivity, >1 antagonism
Description: Each single culture was inoculated to TSB agar slants and incubated for 2 days at 30° C. for C. albicans and all bacteria except E. coli and S. aureus, which were at 37° C., and incubated for 10-14 days at 25° C. for fungal cultures. The bacteria and fungi were then washed off the slants with phosphate buffer (0.125 M, pH 7.2) and inoculated into each test tube containing a given concentration and ratio of 573 and 886 to make final cell concentration of about 2×10^7 bacteria and 2×10^6 fungi per ml. […] Seven days after inoculation, 5 microliter of sample from each test tube (containing about 10^5 bacteria and 10^4 fungi from original inoculation) was removed and assessed for viable organisms by 1:50 dilution into TSB medium and checked for regrowth. No viable organisms were detected from the test tubes where MICs were observed. […] Each test tube was reinoculated 2 more times (a total of 3 inoculations) to determine the capacity and the longlasting activity of the combinations.
Synergism is determined by the industrially accepted method described by Kull, F. C.; Eisman, P. C.; Sylvestrowicz, H. D. and Mayer, R. L. in Applied Microbiology 9:538-541 (1961) using the ratio determined by [formula] wherein QA=concentration of compound A in parts per million (ppm), acting alone, which produced an end point
Qa=concentration of compound A in ppm, in the mixture, which produced an end point
QB=concentration of compound B in ppm, acting alone, which produced an end point
Qb=concentration of compound B in ppm, in the mixture, which produced an end point
When the sum of Qa/QA plus Qb/QB is greater than one, antagonism is indicated. When the sum is equal to one, additivity is indicated, and when the sum is less than one, synergism is indicated.
As shown, a wide range of concentration and ratios was tested. More importantly all the critical end-point activities for the combinations were covered. […] Thus, the end-point activities are based on the minimum concentrations of a given ratio of combination product that inhibit all three inoculations.
The end-point activity (MIC in ppm) is taken from Table 1.
QA is the end-point activity of 573 alone
QB is the end-point activity of 886 alone
Qa is the end-point activity 573 in the mixture of 573 and 886
Qb is the end-point activity of 886 in the mixture of 573 and 886.
Since 886 is 25% 573 and 75% 651, the total 573 (Qa') in the combinations is Qa+25% Qb, and the total 651 (Qb') in the combinations is 75% Qb. Total concentration of 573 and 651 in the mixture is Qa' and Qb'. The % 573 in the mixture is Qa'/(Qa'+Qb'), and %651 in the mixture is Qb'/(Qa'+Qb'.)
Therefore, the calculation of synergy index (SI) is Qa'/QA+Qb'/.75 QB. The most preferred synergy for 573 and 651 combinations is seen at 2.3%-4.5% of 651. Taking the synergy index of less than 0.5 as most significant, then a range of 2.3% to 8.5% of 651 in the 573/651 combinations is preferred.

Structure (SMILES): Cn1sccc1=O [compound 573, 2-methyl-4-isothiazolin-3-one]
- Qa'/QA (Expt. 1): 1.00
- Qb'/QB* (QB* = QB × 75%) (Expt. 1): 0.00
- Total 573 Qa' (Qa + 25% Qb) at end-point (Expt. 1): 500.0 ppm
- Total ppm Qa' + Qb' at end-point (Expt. 1): 500.0 ppm
- SI (synergy index, Qa'/QA + Qb'/.75 QB) (Expt. 1): 1.00
- Qa'/QA (Expt. 2): 1.00
- Qb'/QB* (QB* = QB × 75%) (Expt. 2): 0.00
- Total 573 Qa' (Qa + 25% Qb) at end-point (Expt. 2): 125.0 ppm
- Total ppm Qa' + Qb' at end-point (Expt. 2): 125.0 ppm
- SI (synergy index, Qa'/QA + Qb'/.75 QB) (Expt. 2): 1.00
